{"source": "patent US20070111258A1", "about": "“Compositions and methods for modulating the acute phase response” (priority 2005, published 2007)", "key": {"CREBH [1]": {"tested_on": "CREBH", "assay": "Cleavage of flag-tagged CREBH in transfected wild-type CHO cells (nuclear fraction Western blot)", "assay_type": "cell-based, Chinese hamster", "conditions": "Tm 5 μg/ml 10 hours", "procedure": "FIG. 5 depicts the cleavage of CREBH by proteases S1P and S2P upon ER stress. (A) CREBH is cleaved by S1P-KDEL, but not S1P-KDAS. COS7 cells were co-transfected with a construct expressing flag-tagged full-length CREBH and a construct expressing S1P-KDAS or S1P-KDEL. CREBH construct DNA (1 μg) was mixed with S1P-KDEL or S1P-KDAS construct DNA (1 or 2 μg as indicated) for transfection of cells in one well of a 6-well plate. COS7 cells expressing full-length CREBH were also cultured in the absence or presence of 0.5 μM BFA for 8 hours. COS7 cells expressing CREBH-ΔC, the cytosolic/nuclear form of CREBH, were included as a positive control. Expression and cleavage of CREBH were detected by Western blot analysis using an anti-flag antibody. (B) Cleavage of CREBH in wild-type (K1), S2P-deficient (M19), and […] CHO cells. […]\nFor analysis of expression and cleavage of CREBH protein, total cell lysates were prepared from H2.35 cells or COS7 cells using Nonidet P-40 lysis buffer (1% NP-40, 50 mM Tris-HCl at pH 7.5, 150 mM NaCl, 0.05% SDS) supplemented with protease inhibitors (Complete Mini from Roche Applied Science), 0.1 mM sodium vanadate, and 1 mM sodium fluoride. […] The total cell lysate, membrane and nuclear fractions were subjected to SDS-PAGE and then analyzed by Western blot using anti-flag monoclonal antibody or other antibodies. […]"}, "CREBH [2]": {"tested_on": "CREBH", "assay": "Endogenous CREBH cleavage in mouse liver (Western blot)", "assay_type": "in vivo", "conditions": "wild-type mice; 24 hours after i.p. injection", "description": "(F-G) Expression of endogenous CREBH protein in the livers of wild-type (F) and CREBH knockdown (G) mice challenged with IL6 plus IL1β, LPS or Tm. Wild-type or CREBH knockdown mice of 3-month old were intraperitoneally injected with IL6 (25 ng/gram body weight) plus IL1β (25 ng/gram body weight), LPS (3 μg/gram body weight) or Tm (2 μg/gram body weight). Mice were injected with the same volume of NaCL solution as controls. Liver protein extracts were prepared at 24 hours after injection. Western blot analysis was performed by using a polyclonal anti-mouse CREBH antibody. The blots were reprobed with anti-α-actin antibody for loading controls."}}}
{"substance": "tunicamycin [Tm]", "values": [{"measurement": "increase of the nuclear form of CREBH", "setting": "CREBH [1]", "result": "approximately 6 fold"}, {"measurement": "cleaved form of CREBH in the livers", "setting": "CREBH [2]", "result": "cleaved form of CREBH was increased"}]}
